The source of these data is patent publication US20260263456A1, “TADALAFIL GASTRIC-SOLUBLE RAPID-RELEASE SOLID DISPERSION, TABLET, AND USE THEREOF” (Shenzhen Hanhui Pharmaceutical Technology Co., Ltd., priority 2023, published 2026).

The structures appear in SMILES notation. Converted amounts (≈) assume the structure as drawn.

Data set [1] in a line: Solubility of tadalafil API in various solvents. Type of data set: physicochemical. To be noted: thermodynamic from solid, 25° C. and 60° C. The source says: A suitable amount of tadalafil was weighed and dissolved in various commonly used organic solvents to identify the most appropriate solvents for establishing UV methodology. The solvents utilized for preparing solid dispersions, along with the solubility of tadalafil, the active pharmaceutical ingredient, in different solvents, are presented in Table 4 below.

A short description of data set [2]: Polymer and surfactant screening: solubility of solid dispersions in pH 1.0 and pH 6.8 media. It is filed as physicochemical. Conditions: API alone, 2 mg/mL, one value across 5 min and 30 min. As to the method:
In this implementation example, a micro-scale rotary evaporation method was employed to screen various types of polymers and surfactants, specifically in the context of the active pharmaceutical ingredient (API) ratio of polymer to surfactant.
Acetone was utilized to prepare a stock solution of the active pharmaceutical ingredient at a concentration of 5 mg/mL, a polymer stock solution at 10 mg/mL, and a surfactant stock solution at 10 mg/mL. These solutions were evenly mixed in two identical portions, then centrifuged and dried to create the solid dispersion.
To each sample tube, 1 mL of pH 1.0 and pH 6.8 media was added, and the samples were vortexed at room temperature to ensure complete dispersion. Samples were collected at 5 minutes and 30 minutes, then centrifuged, diluted, and the absorbance was measured to calculate solubility.

For the compound `CN1CC(=O)N2[C@H](c3ccc4c(c3)OCO4)c3[nH]c4ccccc4c3C[C@@H]2C1=O` [Tadalafil], the solubility (in general, the dissolved amount per volume that the medium holds) in data set [1] (organic solvent or mixture, Acetone) was 10.2 to 16.9 mg/mL (≈ 26.1 to 43.5 mM); in data set [1] (organic solvent or mixture, Acetonitrile), 16 to 23.9 mg/mL (≈ 41 to 61.5 mM); in data set [1] (organic solvent or mixture, Anhydrous ethanol), less than 10.8 mg/mL; in data set [1] (organic solvent or mixture, Dichloromethane), less than 10.8 mg/mL; in data set [1] (organic solvent or mixture, Tetrahydrofuran), 23.8 to 47.6 mg/mL (≈ 61.2 to 122 mM); in data set [1] (pH 6.8 medium, aqueous buffer, pH 6.8) it was less than 8.04 mg/mL. In addition, the “pH 1.0(Solubility mg/mL)” value in data set [2] (pH 1.0) came out at 0.002 mg/mL. Besides, the “pH 6.8(Solubility mg/mL)” value in data set [2] (pH 6.8) came out at 0.027 mg/mL.
